The values that follow come from patent publication US20130005699A1, “METHODS AND PRODUCTS FOR TREATMENT OF DISEASES” (DMI ACQUISITION CORP., priority 2009, published 2013).

In one experiment the test system is RhoA. The experiment can be described thus: Rho activation assay (GLISA) in retinal endothelial cells. It counts as cell-based, human. As to the method: This experiment was performed using a commercially-available Rho activation assay (GLISA) purchased from Cytoskeleton, Denver, Colo., following the manufacturer's protocol. […] Test compounds diluted in HBSS were placed in the incubator to equilibrate before addition to the cells. Then, 150 μl of each test compound was added to the appropriate culture wells, and the plates were incubated in the incubator for an additional 15 minutes. Then, thrombin was added to appropriate wells. After 1 minute, the cells were washed one time with 1.5 ml phosphate buffered saline and were then lysed with 100 μl GLISA lysis buffer supplemented with protease inhibitors. The extracts were scraped, transferred to microcentrifuge tubes and transferred to ice to preserve the active form of RhoA. All extracts were then cleared of debris by spinning at 10,000 rpms for 2 minutes at 4° C. The supernatants were transferred to new tubes and placed back on ice. Aliquots of each extract were removed for the GLISA assay and for protein determinations. All protein concentrations were within 10%, and the extracts were used at the achieved concentrations (equates to 15 μg total protein per well). The GLISA assay was performed using the reagents supplied in the kit.

Experiment [1] deals with human retinal endothelial cells. Nature of the experiment: TER of retinal endothelial cell monolayers with danazol, steroid receptor antagonists and hormones (Example 10). As to conditions: for TER at 5 minutes: None 250.30; for TER at 60 minutes: None 251.00; for TER at 30 minutes: None 262.31; for TER at 24 Hours: None 287.09.
For experiment [2] the test system is unchanged. The experiment can be described thus: TER of retinal endothelial cell monolayers with danazol and steroid receptor antagonists (Example 6). The note with it: for TER at 30 minutes: None 216.22; for TER at 120 minutes: None 234.23; for TER at 60 minutes: None 249.25; for TER at 24 Hours: None 312.31.
The next experiment concerns HUVECs. Nature of the experiment: HUVEC invasion (BioCoat Matrigel Invasion Chambers). The note with it: 24 hours, 5% FCS; FCS raised 5674 FU±77 to 7143±516; concentration of LY294002 not specified (10 μM and 100 μM tested). It counts as cell-based, human. As to the method:
BioCoat Matrigel Invasion Chambers were purchased from BD Biosciences (San Jose, Calif.). Inserts were rehydrated at 37° C. with 500 μl HBSS for 2 hours prior to use in humidified incubator. Trypsinized HUVECs were washed twice with warm EGM-2 containing 0.1% FCS and added to the upper chamber of the invasion insert at 100,000 cells in a total volume of 250 μl. […]. Non-invasive cells were removed from the upper chamber with moistened cotton swabs and then the inserts were washed twice with HBSS. The inserts were then submerged in 10 μM calcein AM prepared in HBSS and incubated for 4 hours. Fluorescence was determined in a microplate reader at 485 nm excitation and 595 nm emission.
All data is presented as representative experiment done in triplicate. Differences between subsets were analyzed using student t-test in Microsoft Excel. P<0.05 was considered statistically significant.

Experiment [3] relates to human retinal endothelial cells. The experiment can be described thus: ECIS resistance (Example 12), retinal cells.
Experiment [4] has the same test system. Nature of the experiment: Actin stress fiber formation (Example 11), retinal cells.
The subject of experiment [5] is human renal glomerular microvascular endothelial cells. Nature of the experiment: Actin stress fiber formation (Example 11), glomerular cells.
Experiment [6] deals with human retinal endothelial cells. The experiment can be described thus: Actin stress fiber formation, rhodamine-phalloidin staining, TNFα (Example 7). As to conditions: TNFα 50 ng/ml, 30 minutes.
For a further experiment, the system named is VE-Cadherin. Nature of the experiment: VE-cadherin phosphorylation (immunoprecipitation, Pro-Q diamond / SYPRO ruby densitometry). It counts as cell-based, human. As to conditions: VEGF 50 ng/ml. As to the method:
The plates were immediately treated to lyse the cells as follows. PBS and the lysis buffer (PBS containing 1% Triton X-100 supplemented with phosphatase inhibitor solutions 1 and 2 (Sigma), protease inhibitor (Sigma) and sodium orthovanadate at a final concentration of 2 mM) were cooled to 4° C. The cells were washed two times with 5 ml of the ice cold PBS and then lysed in 500 μl of the ice cold lysis buffer. The resulting protein extracts were transferred to 1.7 ml microcentrifuge tubes, and cell debris was removed by spinning at 4° C. at 10,000 rpm for 10 minutes. Then, 450 μl of the cleared solution was transferred to tubes containing 25 μl of Protein Dynabeads (Invitrogen) coated with 10 μl C19 anti-VE cadherin polyclonal antibody (Santa Cruz Biotechnology) (coating performed following manufacturer's protocol). The extracts and beads were then incubated overnight at 4° C. on an orbital shaker to capture VE cadherin from the extracts. The beads were then washed four times with ice cold lysis buffer. To release the protein from the beads, they were heated for 10 minutes at 75° C. in SDS loading dye containing 20% reducing dye (Invitrogen).
The released proteins were separated in 4-20% polyacrylamide gels (Invitrogen) at 120 volts for 1 hour. To determine phosphorylation and total protein in the gels, Pro-Q diamond (Invitrogen) and SYPRO ruby (Invitrogen) protein staining were sequentially performed following the manufacturer's protocol. The gels were photographed and densitometry performed using a Kodak imaging station.

Experiment [7] concerns human retinal endothelial cells. The experiment can be described thus: Actin stress fiber formation, rhodamine-phalloidin staining, VEGF (Example 8). It counts as cell-based. The note with it: VEGF 25 ng/ml, 30 minutes. As for the experimental part:
. […] To counter-stain for nuclei, 100 μl of a 3 μM DAPI (4,6-diamidino-2-phenylindole, dilactate (Invitrogen)) solution was added to each well. After 5 minutes, the cells were washed two times with 100 μl PBS.

[8] abbreviates: passage 12 cells, 1.0 μM, no thrombin, Untreated 0.455.
The mark [9] stands for this setting: passage 12 cells, 0.1 U/ml Thrombin + 1.0 μM compound.
Where [10] appears, read: 10 nM hormone, alone or followed by 0.1 μM Danazol.
Setting [11] is: 0.1 μM of each additive, background subtracted, divided by 0.33 cm^2.
Where [12] appears, read: 10.0 μM LY294002, alone or followed by 0.1 μM Danazol.
Where [13] appears, read: passage 8 cells, 0.1 U/ml Thrombin + 10.0 μM compound.
The mark [14] stands for this setting: passage 12 cells, 0.1 U/ml Thrombin + 10.0 μM compound.
Where [15] appears, read: S1P 1 μM alone, beginning at 15 minutes, strongest at 3 hours.
Where [16] appears, read: 15 minutes, ethanol control 1.00.

In the case of `C[C@@H]1C[C@H]2[C@@H]3CCC4=CC(=O)C=C[C@]4(C)[C@@]3(F)[C@@H](O)C[C@]2(C)[C@@]1(O)C(=O)CO` [Dexamethasone, dexamethasone], the “Percent Inhibition vs. Untreated Control” value in the experiment on RhoA (passage 12 cells, 1.0 μM) is recorded as 5.83%. For the same compound, the “Mean OD (active RhoA)” value in the experiment with RhoA (setting [8]) stood at 0.428. Moreover, in the experiment on RhoA (setting [9]), the “Mean OD (active RhoA)” value was 0.826 and the “Percent Inhibition vs. Thrombin” value turned out to be 33.48%.

In the case of `C[C@]12CC[C@@H]3c4ccc(O)cc4CC[C@H]3[C@@H]1CC[C@@H]2O` [Estradiol, estradiol], in experiment [1] (setting [10]), the “TER at 5 minutes” value was determined as 246.50, the “TER at 60 minutes” value is on record as 250.00, the “TER at 30 minutes” value is 245.50 and the “TER at 24 Hours” value is on record as 328.33.

In the case of `C[C@]12CC[C@@H]3c4ccc(O)cc4C[C@@H](CCCCCCCCC[S+]([O-])CCCC(F)(F)C(F)(F)F)[C@H]3[C@@H]1CC[C@@H]2O` (some centres unmarked) [Fluvestrant, fluvestrant], in experiment [2] (setting [11]), the “TER at 30 minutes” value amounted to 228.23, the “TER at 120 minutes” value was 258.26, the “TER at 60 minutes” value came out at 270.27 and the “TER at 24 Hours” value is 336.34. Also, in experiment [1] (setting [11]), the “TER at 5 minutes” value came out at 223.47, the “TER at 60 minutes” value was 243.99, the “TER at 30 minutes” value came to 251.50 and the “TER at 24 Hours” value is on record as 279.28.

Regarding `CC(C)(O)C(=O)Nc1ccc([N+](=O)[O-])c(C(F)(F)F)c1` [Hydroxyflutamide, hydroxyflutamide], in experiment [2] (setting [11]), the “TER at 30 minutes” value is listed as 177.18, the “TER at 120 minutes” value is 201.20, the “TER at 60 minutes” value stood at 186.19 and the “TER at 24 Hours” value is reported as 297.30. For the same compound, in experiment [1] (setting [11]), the “TER at 5 minutes” value amounted to 190.44, the “TER at 60 minutes” value turned out to be 215.97, the “TER at 30 minutes” value is reported as 207.46 and the “TER at 24 Hours” value came to 267.27.

As for `O=c1cc(N2CCOCC2)oc2c(-c3ccccc3)cccc12` [LY294002], the “fluorescence of invaded cells” value in the experiment with HUVECs came out at 5814±153 FU. In [2] (setting [12]), the “TER at 30 minutes” value is on record as 297.30, the “TER at 120 minutes” value worked out at 276.28, the “TER at 60 minutes” value came out at 354.35 and the “TER at 24 Hours” value is reported as 345.35. For the same compound, the “Percent Inhibition vs. Untreated Control” value in the experiment with RhoA (passage 8 cells, 10.0 μM) worked out at 45.32%. Further, the “Mean OD (active RhoA)” value with RhoA (passage 8 cells, 10.0 μM, no thrombin, Untreated 0.102) was 0.056. Also, in the experiment with RhoA (setting [13]), the “Mean OD (active RhoA)” value was 0.433 and the “Percent Inhibition vs. Thrombin” value is on record as 27.86%. In addition, in the experiment with RhoA (passage 12 cells, 10.0 μM), the “Percent Inhibition vs. Untreated Control” value came to 18.70%. Moreover, the “Mean OD (active RhoA)” value in the experiment with RhoA (passage 12 cells, 10.0 μM, no thrombin, Untreated 0.455) stood at 0.370. In addition, in the experiment with RhoA (setting [14]), the “Mean OD (active RhoA)” value is listed as 0.685 and the “Percent Inhibition vs. Thrombin” value is 58.73%.

Turning to `CCCCCCCCCCCCC/C=C/[C@@H](O)[C@@H](N)COP(=O)(O)O` [S1P, sphingosine-1 phosphate], the “persistence of increased ECIS” value in [3] (1 μM of each compound, monitored for 90 hours) is given as “about 3 hours”. Moreover, the “start of increase of ECIS compared to untreated cells, after treatment” value in experiment [3] (S1P 1 μM alone) was no more than 15 min. For the same compound, the F-actin staining pattern entry in experiment [4] (setting [15]) and in experiment [5] (setting [15]) was “showed actin cortical rings” in each case.

`COc1cc2ncnc(Nc3ccc(Oc4ccccc4)cc3)c2cc1OC` [Src-1 Inhibitor]: in the experiment on RhoA (passage 12 cells, 1.0 μM), the “Percent Inhibition vs. Untreated Control” value came to 23.21%. In addition, the figures for the “Mean OD (active RhoA)” value with RhoA (setting [8]) and in the experiment with RhoA (setting [9]) were 0.349 and 0.534, respectively. The “Percent Inhibition vs. Thrombin” value in the experiment on RhoA (setting [9]) is recorded as 85.85%.

As to `C[C@]12CC[C@H]3[C@@H](CCC4=CC(=O)CC[C@@]43C)[C@@H]1CC[C@@H]2O` [Testosterone, testosterone], in experiment [1] (setting [10]), the “TER at 5 minutes” value came out at 257.51, the “TER at 60 minutes” value is on record as 225.98, the “TER at 30 minutes” value came to 240.49 and the “TER at 24 Hours” value is recorded as 267.27.

On to TNFα, for which the figures for the F-actin staining pattern result in experiment [4] (TNFα 1 ng/ml alone), in experiment [5] (TNFα 1 ng/ml alone) and in [6] were “stress fibers were seen at all times”, “stress fibers were seen at all times” and “strong stress fiber development with intensely staining focal points”, respectively.

On to Thrombin, for which the “Mean OD (active RhoA)” value with RhoA (passage 8 cells, 0.1 U/ml Thrombin alone, Untreated 0.102) is listed as 0.561; in the experiment on RhoA (passage 12 cells, 0.1 U/ml Thrombin alone, Untreated 0.455), 1.013.

On to VEGF, for which the “Ratio phosphorylated: total protein” value in the experiment with VE-Cadherin (15 minutes, ethanol control 0.215) stood at 0.481. In the experiment on VE-Cadherin (setting [16]), the “Relative intensity - ProQ results (phosphorylated protein)” value came to 1.89 and the “Relative intensity - SYPRO results (total protein)” value came out at 0.84. In the experiment on VE-Cadherin (versus ethanol control), the “fold increase of ratio phosphorylated: total protein” value is on record as “(2.24 fold”. Further, the F-actin staining pattern entry in experiment [7] is “strong stress fiber development”.
